This note sets out measurements from US9000025B2, “Autotaxin inhibitors and uses thereof” (Amira Pharmaceuticals, Inc., priority 2010, dated 2015).

Each structure is given as a SMILES string.

In the assay the target is T1, autotaxin (ATX) (Homo sapiens, UniProt Q13822).
T1 construct: conditioned medium from the human melanoma cell line, MDA-MB-4355, which endogenously expresses autotaxin; host or cells: MDA-MB-435S human melanoma cells; serum-free conditioned medium, concentrated 20-fold
Briefly: Native Autotaxin Choline Release Assay. Format: biochemical. Particulars: autotaxin in conditioned medium from human melanoma cell line; choline released from LPC; read-out: MDA-MB-435S Assay IC50. The gist of the method: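 Native ATX from conditioned serum-free, phenol-red-free DMEM of confluent cells cultured 48 h; LPC as substrate. Released choline detected with choline oxidase/peroxidase/4-aminoantipyrine colour mix in 50 mM Tris pH 8, 10 min at 37 °C, absorbance 555 nm; choline quantified against standard curve, equated to LPA formed.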
With `COc1ccc(Cn2cc(-n3c(C)c(Sc4cccc(C(=O)O)c4)c4ccc(Cl)c(F)c43)cn2)cc1` [Compound 3-48, 3-{6-Chloro-7-fluoro-1-[1-(4-methoxy-benzyl)-1H-pyrazol-4-yl]-2-methyl-1H-indol-3-ylsulfanyl}-benzoic acid], the concentration for half-maximal inhibition (IC50) – broadly, the concentration that gives 50% inhibition – is less than 300 nM.

Consider `Cc1c(Sc2cccc(C(=O)O)c2)c2ccc(Cl)c(F)c2n1-c1cn[nH]c1` [Compound 3-49, 3-[6-Chloro-7-fluoro-2-methyl-1-(1H-pyrazol-4-yl)-1H-indol-3-ylsulfanyl]-benzoic acid], for which the IC50 is less than 300 nM.

As for `Cc1c(Sc2cccc(C(=O)O)c2)c2ccc(Cl)c(F)c2n1-c1cnn(CCO)c1` [Compound 3-50, 3-{6-Chloro-7-fluoro-1-[1-(2-hydroxy-ethyl)-1H-pyrazol-4-yl]-2-methyl-1H-indol-3-ylsulfanyl}-benzoic acid], the IC50 is less than 300 nM.

For the compound `CCn1cc(-n2c(C)c(Sc3cccc(C(=O)NS(=O)(=O)C4CC4)c3)c3ccc(Cl)c(F)c32)cn1` [Compound 3-51, cyclopropanesulfonic acid 3-[6-chloro-1-(1-ethyl-1H-pyrazol-4-yl)-7-fluoro-2-methyl-1H-indol-3-ylsulfanyl]-benzoylamide], the IC50 is less than 300 nM.

With `CCn1cc(-n2c(C)c(Sc3cccc(C(=O)O)c3)c3ccc(Cl)c(Cl)c32)cn1` [Compound 3-52, 3-[6,7-Dichloro-1-(1-ethyl-1H-pyrazol-4-yl)-2-methyl-1H-indol-3-ylsulfanyl]-benzoic acid], the IC50 was less than 300 nM.

On to `CCCn1cc(-n2c(C)c(Sc3cccc(CC(=O)NS(C)(=O)=O)c3)c3ccc(Cl)cc32)cn1` [Compound 3-53, N-(2-{3-[6-Chloro-2-methyl-1-(1-propyl-1H-pyrazol-4-yl)-1H-indol-3-ylsulfanyl]-phenyl}-acetyl)-methanesulfonamide], for which the IC50 was less than 300 nM.

Take `CCCn1cc(-n2c(C)c(Sc3cccc(CC(=O)NS(=O)(=O)C4CC4)c3)c3ccc(Cl)cc32)cn1` [Compound 3-54, cyclopropanesulfonic acid (2-{3-[6-chloro-2-methyl-1-(1-propyl-1H-pyrazol-4-yl)-1H-indol-3-ylsulfanyl]-phenyl}-acetyl)-amide]: the 50% inhibitory concentration (IC50) is less than 300 nM.

For the compound `CCCn1cc(-n2c(C)c(Sc3cccc(CC(=O)NS(=O)(=O)c4ccccc4)c3)c3ccc(Cl)cc32)cn1` [Compound 3-55, N-(2-{3-[6-Chloro-2-methyl-1-(1-propyl-1H-pyrazol-4-yl)-1H-indol-3-ylsulfanyl]-phenyl}-acetyl)-benzenesulfonamide], the IC50 is less than 300 nM.

Regarding `Cc1c(Sc2cccc(C(=O)O)c2)c2ccc(Cl)c(F)c2n1-c1cnn(C(C)C)c1` [Compound 3-56, 3-[6-Chloro-7-fluoro-1-(1-isopropyl-1H-pyrazol-4-yl)-2-methyl-1H-indol-3-ylsulfanyl]-benzoic acid], the half-maximal inhibitory concentration (IC50) was less than 300 nM.

On to `Cc1c(Sc2cccc(C(=O)O)c2)c2ccc(Cl)c(F)c2n1-c1cnn(C)c1` [Compound 3-57, 3-[6-Chloro-7-fluoro-2-methyl-1-(1-methyl-1H-pyrazol-4-yl)-1H-indol-3-ylsulfanyl]-benzoic acid], for which the IC50 was less than 300 nM.

In the case of `CCn1ccc(-n2c(C)c(Sc3cccc(C(=O)O)c3)c3ccc(Cl)c(F)c32)n1` [Compound 3-58, 3-[6-Chloro-1-(1-ethyl-1H-pyrazol-3-yl)-7-fluoro-2-methyl-1H-indol-3-ylsulfanyl]-benzoic acid], the IC50 was 300 to 1000 nM.

`Cc1c(Sc2cccc(C(=O)O)c2)c2ccc(Cl)c(F)c2n1-c1cnn(C(C)(C)C)c1` [Compound 3-60, 3-[1-(1-tert-Butyl-1H-pyrazol-4-yl)-6-chloro-7-fluoro-2-methyl-1H-indol-3-ylsulfanyl]-benzoic acid]: the IC50 was less than 300 nM.

For the compound `Cc1cc(-n2c(C)c(Sc3cccc(C(=O)O)c3)c3ccc(Cl)c(F)c32)cs1` [Compound 3-61, 3-[6-Chloro-7-fluoro-2-methyl-1-(5-methyl-thiophen-3-yl)-1H-indol-3-ylsulfanyl]-benzoic acid], the half-maximal inhibitory concentration (IC50) was less than 300 nM.

Consider `Cc1ccc(-n2c(C)c(Sc3cccc(C(=O)O)c3)c3ccc(Cl)c(F)c32)s1` [Compound 3-62, 3-[6-Chloro-7-fluoro-2-methyl-1-(5-methyl-thiophen-2-yl)-1H-indol-3-ylsulfanyl]-benzoic acid], for which the IC50 was in the range of 300 to 1000 nM.

`CCn1cc(-n2c(C)c(Sc3cc(F)cc(C(=O)O)c3)c3ccc(Cl)c(F)c32)cn1` [Compound 4-2, 3-[6-Chloro-1-(1-ethyl-1H-pyrazol-4-yl)-7-fluoro-2-methyl-1H-indol-3-ylsulfanyl]-5-fluoro-benzoic acid]: the IC50 is less than 300 nM.

On to `CCn1cc(-n2c(C)c(Sc3cccc(C(=O)O)c3F)c3ccc(Cl)c(F)c32)cn1` [Compound 4-3, 3-[6-Chloro-1-(1-ethyl-1H-pyrazol-4-yl)-7-fluoro-2-methyl-1H-indol-3-ylsulfanyl]-2-fluoro-benzoic acid], for which the IC50 was less than 300 nM.

As to `CCCn1cc(-n2c(C)c(Sc3cccc(C(=O)O)c3F)c3ccc(Cl)c(F)c32)cn1` [Compound 4-4, 3-[6-Chloro-7-fluoro-2-methyl-1-(1-propyl-1H-pyrazol-4-yl)-1H-indol-3-ylsulfanyl]-2-fluoro-benzoic acid], the IC50 is less than 300 nM.

In the case of `CCCn1cc(-n2c(C)c(Sc3cc(F)cc(C(=O)O)c3)c3ccc(Cl)c(F)c32)cn1` [Compound 4-5, 3-[6-Chloro-7-fluoro-2-methyl-1-(1-propyl-1H-pyrazol-4-yl)-1H-indol-3-ylsulfanyl]-5-fluoro-benzoic acid], the IC50 was less than 300 nM.

Take `Cc1c(Sc2cc(F)cc(C(=O)O)c2)c2ccc(Cl)c(F)c2n1-c1cnn(C(C)C)c1` [Compound 4-6, 3-[6-Chloro-7-fluoro-1-(1-isopropyl-1H-pyrazol-4-yl)-2-methyl-1H-indol-3-ylsulfanyl]-5-fluoro-benzoic acid]: the IC50 was less than 300 nM.

Turning to `CCn1cc(-n2c(C)c(Sc3cccc(C(=O)NS(=O)(=O)c4ccccc4)c3F)c3ccc(Cl)c(F)c32)cn1` [Compound 4-7, N-{3-[6-Chloro-1-(1-ethyl-1H-pyrazol-4-yl)-7-fluoro-2-methyl-1H-indol-3-ylsulfanyl]-2-fluoro-benzoyl}-benzenesulfonamide], the IC50 was less than 300 nM.

For the compound `CCCn1cc(-n2c(C)c(Sc3cccc(C(=O)NS(=O)(=O)c4ccccc4)c3F)c3ccc(Cl)c(F)c32)cn1` [Compound 4-8, N-{3-[6-Chloro-1-(1-propyl-1H-pyrazol-4-yl)-7-fluoro-2-methyl-1H-indol-3-ylsulfanyl]-2-fluoro-benzoyl}-benzenesulfonamide], the IC50 was less than 300 nM.

As to `CCn1cc(-n2c(C)c(Sc3ccc(C)c(C(=O)O)c3)c3ccc(Cl)c(F)c32)cn1` [Compound 4-9, 5-[6-Chloro-1-(1-ethyl-1H-pyrazol-4-yl)-7-fluoro-2-methyl-1H-indol-3-ylsulfanyl]-2-methyl-benzoic acid], the IC50 was less than 300 nM.

As for `CCCn1cc(-n2c(C)c(Sc3ccc(OC)c(C(=O)O)c3)c3ccc(Cl)c(F)c32)cn1` [Compound 4-10, 5-[6-Chloro-7-fluoro-2-methyl-1-(1-propyl-1H-pyrazol-4-yl)-1H-indol-3-ylsulfanyl]-2-methoxy-benzoic acid], the IC50 was less than 300 nM.

On to `CCn1cc(-n2c(C)c(Sc3cccc(C(=O)O)c3F)c3c(F)cc(Cl)cc32)cn1` [Compound 4-11, 3-[6-Chloro-1-(1-ethyl-1H-pyrazol-4-yl)-4-fluoro-2-methyl-1H-indol-3-ylsulfanyl]-2-fluoro-benzoic acid], for which the IC50 was less than 300 nM.
